Reference: PubChem BioAssay (NCI)
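All cell lines were grown in 96-well plates and treated with compound for 48 hours. Here, GI50 denotes the concentration required for 50% inhibition of growth. The concentration for full growth arrest is given as TGI.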

Tests used:
Experiment in all cases: NCI-60 cell line screen, 48 h
SF-295 CNS = test system: SF-295 CNS
HT29 colon = test system: HT29 colon
OVCAR-4 ovarian = test system: OVCAR-4 ovarian
HCT-116 colon = test system: HCT-116 colon
OVCAR-8 ovarian = test system: OVCAR-8 ovarian
ACHN renal = test system: ACHN renal
HCT-15 colon = test system: HCT-15 colon
UO-31 renal = test system: UO-31 renal
SK-MEL-2 melanoma = test system: SK-MEL-2 melanoma
786-0 renal = test system: 786-0 renal

| SMILES | GI50 (SF-295 CNS) | TGI (SF-295 CNS) | GI50 (HT29 colon) | TGI (HT29 colon) | GI50 (OVCAR-4 ovarian) | TGI (OVCAR-4 ovarian) | GI50 (HCT-116 colon) | TGI (HCT-116 colon) | GI50 (OVCAR-8 ovarian) | TGI (OVCAR-8 ovarian) | GI50 (ACHN renal) | TGI (ACHN renal) | GI50 (HCT-15 colon) | TGI (HCT-15 colon) | GI50 (UO-31 renal) | TGI (UO-31 renal) | GI50 (SK-MEL-2 melanoma) | TGI (SK-MEL-2 melanoma) | GI50 (786-0 renal) | TGI (786-0 renal) |
| --- | --- | --- | --- | --- | --- | --- | --- | --- | --- | --- | --- | --- | --- | --- | --- | --- | --- | --- | --- | --- |
| OCC#Cc1ccccc1C#Cc1ccccc1 | 15.5 µM | 32.8 µM | 23.6 µM | 97.6 µM | 17 µM | 45.2 µM | 15.3 µM | 28.6 µM | 19.6 µM | 40.6 µM | 14.9 µM | 28.1 µM | 11.5 µM | 24.8 µM | 35.2 µM | > 100 µM | 24.1 µM | 51.3 µM | 14.6 µM | 27.7 µM |
| O=C1OC(O)[C@@H]2[C@H]1[C@H]1CC[C@@H]2O1 (stereo partly drawn) | > 100 µM | > 100 µM | 4.99 µM | 32.2 µM | > 100 µM | > 100 µM | 42.9 µM | > 100 µM | > 100 µM | > 100 µM | > 89.6 µM | > 100 µM | > 100 µM | > 100 µM | 66.6 µM | > 100 µM | 39 µM | > 82.4 µM | > 100 µM | > 100 µM |
| Nc1ncnc2n[nH]c(Nc3ccc(F)cc3)c12 | > 100 µM | > 100 µM | 25.3 µM | > 100 µM | 19 µM | 75.2 µM | 12.3 µM | 31.9 µM | 22.5 µM | > 100 µM | 5.46 µM | > 100 µM | 8.6 µM | > 100 µM | 5.93 µM | > 100 µM | 14 µM | > 100 µM | 19.3 µM | > 100 µM |
| CSc1nc(NC2OCC(OC(C)=O)C(OC(C)=O)C2OC(C)=O)c(N=CC=Nc2c(NC3OCC(OC(C)=O)C(OC(C)=O)C3OC(C)=O)nc(SC)[nH]c2=O)c(=O)[nH]1 (stereo not drawn) | – | > 100 µM | – | > 100 µM | – | > 100 µM | – | > 100 µM | – | > 100 µM | – | > 88.7 µM | – | > 100 µM | – | > 100 µM | – | > 100 µM | – | > 100 µM |
| Fc1cc2[nH]ncc2c2c3c(c(-c4cn[nH]c4)nc12)CCCC3 | 1.44 µM | 6.44 µM | 1.24 µM | > 100 µM | 1.69 µM | 8.14 µM | 0.498 µM | > 37.5 µM | 1.48 µM | > 30.2 µM | 0.327 µM | 10.3 µM | 0.56 µM | > 61.5 µM | 0.896 µM | 3.87 µM | 0.842 µM | 3.46 µM | 2.38 µM | > 28 µM |
| COC(OC)C(C)CC(=O)N(C)C (stereo not drawn) | – | > 100 µM | – | > 100 µM | – | > 100 µM | – | > 100 µM | – | > 100 µM | – | > 100 µM | – | > 100 µM | – | > 100 µM | – | > 100 µM | – | > 100 µM |
| CN(C)c1nc(=Nc2ccc(N=c3nc(N(C)C)ss3)cc2)ss1 | – | > 100 µM | – | 54.5 µM | – | 48.1 µM | – | 34.1 µM | – | 34.2 µM | – | > 100 µM | – | > 100 µM | – | > 81.6 µM | – | > 100 µM | – | > 100 µM |
| CC(C)(C)OC(=O)N[C@H]1CC2(C=C(Cl)C(=O)C(Cl)=C2)OC1=O | – | 47.5 µM | – | 27.9 µM | – | 32.5 µM | – | 28 µM | – | 34.5 µM | – | 28.2 µM | – | 34.9 µM | – | 38.8 µM | – | 41.7 µM | – | 28.6 µM |
| CN(C(=O)c1ccc(C(F)(F)F)cc1)c1ccc(Oc2ccc3c(c2)cc(C(=O)N2CCN(Cc4ccc(OC(F)F)cc4)CC2)n3C)nc1 | < 0.01 µM | > 100 µM | 33.2 µM | > 100 µM | < 0.01 µM | > 49.7 µM | < 0.01 µM | > 100 µM | 1.71 µM | > 100 µM | > 100 µM | > 100 µM | > 100 µM | > 100 µM | 4.22 µM | > 100 µM | 11.9 µM | > 100 µM | > 100 µM | > 100 µM |
| Cn1cnc([N+](=O)[O-])c1S(=O)(=O)Oc1cccc2ccccc12 | 21.2 µM | > 65.3 µM | 1.8 µM | 3.99 µM | 2.03 µM | 5.96 µM | 2.1 µM | 5.11 µM | 4.62 µM | 18.7 µM | 1.97 µM | 4.21 µM | 1.97 µM | 4.72 µM | 1.4 µM | 4.33 µM | 4.42 µM | 20 µM | 14.4 µM | 29.3 µM |
| CCCCCCN(CCCCCC)C(=O)Cc1c2n(c3ccccc13)Cc1ccccc1-2 | – | > 100 µM | – | > 100 µM | – | > 100 µM | – | > 100 µM | – | > 100 µM | – | > 100 µM | – | > 100 µM | – | > 100 µM | – | > 100 µM | – | > 100 µM |
| COC1=CC(=O)C(C2CC(=O)c3c(O)cc(O)cc3O2)=CC1=O (stereo not drawn) | – | 35.1 µM | – | > 61.3 µM | – | 36.5 µM | – | 32.9 µM | – | 59.7 µM | – | 29.7 µM | – | 55.3 µM | – | 32.2 µM | – | 34.4 µM | – | 31.7 µM |
| COc1c(Cl)c(=O)oc2ccc(Cl)cc12 | – | > 100 µM | – | > 100 µM | – | > 100 µM | – | > 100 µM | – | > 100 µM | – | > 100 µM | – | > 100 µM | – | > 100 µM | – | > 100 µM | – | > 100 µM |
| ClCc1cccc(Cn2cnc3ncnc(Cl)c32)c1 | 6.35 µM | 19 µM | 2.89 µM | > 100 µM | 4.17 µM | 16 µM | 1.78 µM | 5.21 µM | 3.1 µM | 14.9 µM | 1.88 µM | 3.53 µM | 1.96 µM | 4.34 µM | 1.54 µM | 3.11 µM | 5.76 µM | 22.8 µM | 2.06 µM | 4.09 µM |
| OCc1ccc(-c2ccc(-c3ccc(CO)s3)o2)s1 | – | 74.1 µM | – | > 95 µM | – | 2.76 µM | – | 45.2 µM | – | 61.4 µM | – | > 94.1 µM | – | 81 µM | – | > 84.7 µM | – | 89.2 µM | – | > 85.8 µM |
| O=C(/C=C\c1ccc(Cl)c(Cl)c1)c1ccc(Cl)cc1Cl | – | 47.1 µM | – | 34.2 µM | – | 88.7 µM | 2.68 µM | > 100 µM | – | 38 µM | – | 31.6 µM | 58 µM | > 100 µM | > 100 µM | > 100 µM | – | 41.9 µM | – | 39.6 µM |
